Source: ChEMBL document CHEMBL4431396, “Novel Autotaxin Inhibitors for the Treatment of Osteoarthritis Pain: Lead Optimization via Structure-Based Drug Design” (ACS Med Chem Lett, 2016)

Legend:
Format in all cases: ADME, organism-based
[1] = Volume of distribution at steady state in rat at 1 mg/kg, iv; details: in vivo, read-out: Vdss
[2] = Oral bioavailability in rat at 10 mg/kg administered as single dose; details: in vivo
[3] = Half life in rat at 1 mg/kg, iv; details: in vivo
[4] = Cmax in rat at 10 mg/kg, po administered as single dose; parameters: dose 10 mg/kg, route oral; details: in vivo
[5] = tested on: Rattus norvegicus; assay: Time duration for plasma concentration stays above in vitro IC80 level in rat at 10 mg/kg, po administered as single dose; details: in vivo
[6] = AUC in rat at 10 mg/kg, po administered as single dose; details: in vivo

Vd [1]: 1.4 L/kg | bioavailability [2]: 23% | half-life [3]: 1.14 h | Cmax [4]: 660 nM | Time [5]: > 12 h | AUC [6]: 3.44 µM·h
SMILES: O=C(COCCc1cnn[nH]1)N1Cc2cnc(NC3Cc4ccccc4C3)nc2C1
